How the values were obtained:
[1] = system: methicillin resistant Staphylococcus aureus (MRSA); conditions: certain species of MRSA; earlier application WO03/024437; cited from earlier work
P. larvae subsp. larvae = test: Investigation into bacteriostatic or bactericidal effects (Study 2); assay type: cell-based, Paenibacillus larvae subsp. larvae; design: key to Growth in broth after exposure to test Item at concentration indicated: *: Growth present in one replicate only
Experimental: (§1) Where there was no growth in a replicate, at the end of one week the culture was plated out for single colonies on the appropriate agar. This was to determine whether the test item had bactericidal activity, where all the bacterial cells are killed, or bacteriostatic action, where the cells are unable to replicate in the presence of the substance, but will grow when it is removed. A further test, where 0.5 ml of the broth was transferred into 4.5 ml fresh broth (giving a 1:10 dilution) was also undertaken. There would still be some Allicin in the broth, but it should be present at a low enough concentration for growth not to be affected. Where growth occurred in the absence of Allicin, the broth was examined microscopically and plated out for single colonies to confirm the identity of the bacterium.

Bordetella = test: Zones of Inhibition against common chicken bacteria; assay type: cell-based
Salm. Enteriditis = test: as above; assay type: cell-based
Ent. Hirae = test: Agar inhibition test; assay type: cell-based, Enterococcus hirae; conditions: equivalent to 0.0225% w/v
P. alvei = test: Investigation into bacteriostatic or bactericidal effects (Study 2); assay type: cell-based, Paenibacillus alvei; conditions: conclusion from subculture into fresh media
Experimental: as §1

[2] = system: Enterococcus hirae (University of Brighton isolate); test: Modified Kelsey-Sykes test; assay type: cell-based; design: key: CG = Confluent growth
Excerpt: Allicin can be used to displace or supplement existing harmful forms of disinfectant/biocide such as chlorine, sodium hypochlorite, ozone and per-acetic acid all of which can have an adverse effect on the environment. UV radiation is also used for disinfection but power and general running costs are high. Laboratory studies have been conducted on our behalf using allicin on aqueous suspensions of bacterial species commonly used as indicators of the effectiveness of water and wastewater disinfection. To this effect, identified isolates from the faecal coliform and streptococcus groups, namely, Escherichia coli (NCTC 8156) and Enterococcus hirae (University of Brighton isolate) were used in all experiments. […]
Stock suspensions of Escherichia coli (NCTC 8156) and Enterococcus hirae (University of Brighton isolate) were cultivated in Nutrient Broth No. 2 from freeze dried isolates. Prior to each experiment, serial dilutions of the suspensions were enumerated by the spread plate method on Nutrient Agar and subsequent incubation at 37 deg C.
Initial experimental procedures were based on the methods set out in an established UK protocol (BS 6905: 1987). The Kelsy-Sykes methodology was developed as a guide to the concentrations of disinfectants which may be recommended for use under “dirty” (wastewater/sewage) conditions. It is therefore a suitable means of establishing the effectiveness of a disinfectant against a wastewater containing particulate and dissolved contaminants in addition to micro-organisms.
Therefore, with regard to wastewater/sewage considerations, the protocol was adapted. Under the revised methodology, a sample was taken from the bacterial suspension/biocide mix after the prescribed contact time and plated out onto solid media so that a colony count could be made (see Tables 1 and 2).

[3] = allicin conc. 0.9 % (w/v), 10 mins
[4] = allicin conc. 0.9 % (w/v), 20 mins
[5] = allicin conc. 0.9 % (w/v), 30 mins
[6] = allicin conc. 1.08 % (w/v), 10 mins
[7] = allicin conc. 1.08 % (w/v), 20 mins
[8] = allicin conc. 1.26 % (w/v), 10 mins
[9] = allicin conc. 1.26 % (w/v), 20 mins
[10] = allicin conc. 1.62 % (w/v), 10 mins
[11] = allicin conc. 1.62 % (w/v), 20 mins

C=CCS[S+]([O-])CC=C (centres unmarked) [allicin, Allicin]
susceptibility of MRSA to allicin [1]: exceptionally susceptible | Growth in broth after exposure to test Item at concentration indicated (P. larvae subsp. larvae; 50 ppm, 10% inoculum transferred to fresh broth): * | bacteriostatic or bactericidal effect (P. larvae subsp. larvae; conclusion from subculture after exposure): a bactericidal effect appeared to be observed | zone of inhibition at 166 ppm (Bordetella; 166 ppm (1:6 dilution)): 18 mm | zone of inhibition at 1000 ppm (Bordetella; 1000 ppm): 36 mm | zone of inhibition (Salm. Enteriditis; 166 ppm (1:6 dilution)): 0 mm | zone of inhibition (Salm. Enteriditis; 1000 ppm): 22 mm | allicin concentration at which inhibition was demonstrated on agar plates (Ent. Hirae): ≤ 0.225 g/L | bacteriostatic or bactericidal effect (P. alvei): did not kill all bacteria | Numbers of colony forming units killed [2, 3]: CG | Percentage reduction in colony forming units [2, 3]: CG | Numbers of colony forming units killed [2, 4]: CG | Percentage reduction in colony forming units [2, 4]: CG | Numbers of colony forming units killed [2, 5]: CG | Percentage reduction in colony forming units [2, 5]: CG | Numbers of colony forming units killed [2, 6]: CG | Percentage reduction in colony forming units [2, 6]: CG | Numbers of colony forming units killed [2, 7]: CG | Percentage reduction in colony forming units [2, 7]: CG | Percentage reduction in colony forming units ([2]; allicin conc. 1.08 % (w/v), 30 mins): 77% | Numbers of colony forming units killed [2, 8]: CG | Percentage reduction in colony forming units [2, 8]: CG | Numbers of colony forming units killed [2, 9]: CG | Percentage reduction in colony forming units [2, 9]: CG | Percentage reduction in colony forming units ([2]; allicin conc. 1.26 % (w/v), 30 mins): 91% | Percentage reduction in colony forming units ([2]; allicin conc. 1.4 % (w/v), 10 mins): CG | Percentage reduction in colony forming units ([2]; allicin conc. 1.4 % (w/v), 20 mins): CG | Percentage reduction in colony forming units ([2]; allicin conc. 1.4 % (w/v), 30 mins): 87% | Numbers of colony forming units killed ([2]; allicin conc. 1.44 % (w/v), 10 mins): CG | Numbers of colony forming units killed ([2]; allicin conc. 1.44 % (w/v), 20 mins): CG | Numbers of colony forming units killed [2, 10]: CG | Percentage reduction in colony forming units [2, 10]: CG | Numbers of colony forming units killed [2, 11]: CG | Percentage reduction in colony forming units [2, 11]: CG | Percentage reduction in colony forming units ([2]; allicin conc. 1.62 % (w/v), 30 mins): 89%

— patent US20090275667A1, “USE OF ALLICIN AS PRESERVATIVE, AS DISINFECTANT, AS ANTIMICROBIAL OR AS BIOCIDAL AGENT” (Stone Island Holdings Ltd, priority 2003, published 2009)
